These results are taken from ChEMBL document CHEMBL1127614, “2,6-Disubstituted aryl carboxylic acids, leaving groups "par excellence" for benzisothiazolone inhibitors of human leukocyte elastase” (J Med Chem, 1994).

The structures appear in SMILES notation.

For the first assay, the target named is T1, Neutrophil elastase (Homo sapiens, UniProt P08246).
T1 sequence (P08246 whole entry): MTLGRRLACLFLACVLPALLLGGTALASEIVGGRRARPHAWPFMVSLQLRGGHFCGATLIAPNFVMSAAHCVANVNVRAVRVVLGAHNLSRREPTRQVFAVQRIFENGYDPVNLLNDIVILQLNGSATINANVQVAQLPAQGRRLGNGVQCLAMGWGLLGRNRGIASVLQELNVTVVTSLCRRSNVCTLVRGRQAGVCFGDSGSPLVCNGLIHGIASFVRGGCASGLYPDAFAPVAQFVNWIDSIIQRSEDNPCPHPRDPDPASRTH
Kind of assay: In vitro inhibition constant of human leukocyte elastase.
Turning to `Cc1cccc(C)c1C(=O)OCN1C(=O)c2ccccc2S1(=O)=O`, the Ki – broadly, a dissociation constant, usually derived from enzyme kinetics or from competition with a known ligand – is 4 nM. Molecule `O=C(OCN1C(=O)c2ccccc2S1(=O)=O)c1c(Br)cccc1Br` returned a Ki of 8.5 nM. The same measure, in the same setting: the value for `O=C(OCN1C(=O)c2ccccc2S1(=O)=O)c1c(F)cccc1F` was 8 nM; that for `O=C(OCN1C(=O)c2ccccc2S1(=O)=O)c1c(C(F)(F)F)cccc1C(F)(F)F` was 37 nM; that for `COc1cccc(OC)c1C(=O)OCN1C(=O)c2ccccc2S1(=O)=O` was 8 nM. On the same count and under the same terms, under `Cc1cccc2c1C(=O)N(COC(=O)c1c(Cl)cccc1Cl)S2(=O)=O` stands 2 nM. Molecule `O=C(OCN1C(=O)c2ccccc2S1(=O)=O)c1ccccc1` displayed a Ki of 31 nM. Still for that read-out and setting: under `CCc1cccc2c1C(=O)N(COC(=O)c1c(Cl)cccc1Cl)S2(=O)=O` stands 0.17 nM.

`CC(=O)Nc1cccc(Cl)c1C(=O)OCN1C(=O)c2ccccc2S1(=O)=O` displayed a Ki of 18 nM. As to `CC(C)c1cccc2c1C(=O)N(COC(=O)c1c(Cl)cccc1Cl)S2(=O)=O`, the Ki stood at 0.03 nM. The same measure, in the same setting: under `CCC(C)c1cccc2c1C(=O)N(COC(=O)c1c(Cl)cccc1Cl)S2(=O)=O` (stereo not given) stands 0.06 nM. Same read-out and setting: under `CC(=O)OCN1C(=O)c2ccccc2S1(=O)=O` stands 102 nM. Still for that read-out and setting: the value for `CC(C)(C)c1cccc2c1C(=O)N(COC(=O)c1c(Cl)cccc1Cl)S2(=O)=O` was 26 nM; that for `O=C(OCN1C(=O)c2c(-c3ccccc3)cccc2S1(=O)=O)c1c(Cl)cccc1Cl` was 1 nM.

Another assay relates to Cricetinae gen. sp. Briefly: In Vivo evaluation of the Compound for the percentage inhibition of HLE at 60 mg/kg dose by intravenous administration. The assay is classed as functional, Cricetulus griseus.
For `CC(C)c1cccc2c1C(=O)N(COC(=O)c1c(Cl)cccc1Cl)S2(=O)=O`, at 60 mg/kg the inhibition in vivo was 47%.
